Laboratory results from patent US4883797A, “Derivatives of piperazine, method for making the same” (Ferrer Internacional, S.A., priority 1982, dated 1989).

Tests used:
mice [1] = test: Antiarrhythmic activity, method of Ferrini et al, endovenous administration to mice; format: in vivo; details: for ED50: Mus musculus, iv, read-out: Antiarrythmic activity ED50
From the text: Antiarrhythmic activity (Parameter 1) has been determined according to the method of Ferrini et al (Arzn.-Forsch., 29 (II), 9a, 1947-77, 1979).

mean arterial pressure = test: Decrease in mean arterial pressure (hypotension), anesthetized rats, endovenous; format: in vivo; details: for ED50: Rattus norvegicus, iv
From the text: (§1) The decrease in arterial pressure (Parameter 2) and the effects on heart rate (Parameter 3) have been evaluated according to the usual conventional methods used in Cardiovascular Pharmacology.

heart rate = test: Effect on heart rate (bradycardia), anesthetized rats, endovenous; format: in vivo; details: for ED50: Rattus norvegicus, iv
From the text: as §1

cerebral flow = test: Cerebral flow change by electromagnetic flowmetry, anesthetized dogs; format: in vivo; details: endovenous, 5 mg/kg, variation over mean values before testing
Method: (§2) Both parameters have been measured by electromagnetic flowmetry (Narcomatic-Electromagnetic flowmeter) on 12 anesthetized dogs. The hemodynamic parameter average of animals before testing were pO2 =95.40±3.98; pCO2 =34.31.congruent.2.38 and pH-7.297±0.315 by endovenously administering the compounds of a 5 mg/kg dosis.

carotid flow = test: Carotid flow change by electromagnetic flowmetry, anesthetized dogs; format: in vivo; details: endovenous, 5 mg/kg, variation over mean values before testing
Method: as §2

arterial pressure = test: Mean arterial pressure determined simultaneously with cerebral and carotid flows, anesthetized dogs; format: in vivo; details: endovenous, 5 mg/kg, variation over mean values before testing
Method: (§3) The measurements of cerebral and carotid flow changes (parameters 4 and 5) have been made using the most sophisticated methods. Both parameters have been measured by electromagnetic flowmetry (Narcomatic-Electromagnetic flowmeter) on 12 anesthetized dogs. The hemodynamic parameter average of animals before testing were pO2 =95.40±3.98; pCO2 =34.31.congruent.2.38 and pH-7.297±0.315 by endovenously administering the compounds of a 5 mg/kg dosis.
(§4) Simultaneously with the measuring of cerebral and carotid flows, the mean arterial pressure and cerebral vascular resistance (parameters 6,7) in each animal was determined. These parameters were measured according to the conventional method in Cardiovascular Pharmacology and the values were tabulated as the variation rate (Increase or Decrease) over mean values before testing.

[2] = test system: cerebral vascular resistance; test: Cerebral vascular resistance determined simultaneously with cerebral and carotid flows, anesthetized dogs; format: in vivo; details: endovenous, 5 mg/kg, variation over mean values before testing
Method: as §3, §4

mice [3] = details: endovenous
in vivo = details: mouse, iv

Compound | Antiarrythmic activity ED50 (mice [1]) | Mean arterial pressure, Hypotension ED50 (mean arterial pressure) | Heart rate, Bradycardia ED50 (heart rate) | Cerebral flow Increase (cerebral flow) | Carotid flow Decrease (carotid flow) | Arterial pressure Decrease (arterial pressure) | Cerebral vascular resistance Decrease [2] | Acute toxicity LD50 (mice [3]) | ED50 (mice [1]) | ED50 (mean arterial pressure) | ED50 (heart rate) | LD50 (in vivo)
C=CCN1CCN(C(c2ccccc2)c2ccccc2)CC1 [Aligeron 2HCI, reference compound] | 4.4 mg/kg | 1.3 mg/kg | 4.8 mg/kg | 64.0% | 21.3% | 36.0% | 61.0% | 38.5 ± 1.06 mg/kg |  |  |  | 
C(=C\c1ccccc1)/CN1CCN(C(c2ccccc2)c2ccccc2)CC1 [Cinnarizine 2HCI, reference compound] |  |  |  | 76.7% | 62.8% | 43.0% | 68.0% |  |  |  |  | 
Cl.Cl.c1ccc(C(c2ccccc2)N2CCN(CC3CC3)CC2)cc1 [Compound 1, 1-Benzhydryl-4-cyclopropylmethyl-piperazine dihydrochloride] |  |  |  | 55.0% | 68.0% | 30.0% | 55.0% |  | 4.2 mg/kg | 2.7 mg/kg | 3.4 mg/kg | 25.6 ± 4.39 mg/kg
C=C(CN1CCCCC1)CN1CCN(C(c2ccccc2)c2ccccc2)CC1 [Compound 6, 1-Benzhydryl-4-(2-(1-piperidinylmethyl)-2-propenyl)piperazine] |  |  |  | 70.0% | 22.0% | 58.0% | 75.3% |  | 4.3 mg/kg | 1.5 mg/kg | 1.7 mg/kg | 8.6 ± 0.54 mg/kg
CCOC(=O)C=CCN1CCN(C(c2ccccc2)c2ccccc2)CC1 [Compound 7] |  |  |  | 32.0% | 13.0% | 27.3% | 44.7% |  | 23 mg/kg | 2.1 mg/kg | 3.8 mg/kg | 100 ± 6.27 mg/kg
O=C(CCCN1CCN(C(c2ccccc2)c2ccccc2)CC1)c1ccccc1 [Compound 11] |  |  |  | 81.0% | 40.9% | 50.0% | 74.0% |  | 6.9 mg/kg | 0.43 mg/kg | 2.1 mg/kg | 21 ± 1.72 mg/kg
c1ccc(C(c2ccccc2)N2CCN(CCCC3(c4ccccc4)OCCO3)CC2)cc1 [Compound 13] |  |  |  | 140.1% | 25.7% | 35.0% | 73.1% |  | 4 mg/kg | 1.5 mg/kg | 2.6 mg/kg | 42.5 ± 3.05 mg/kg
O=C1NCC(CN2CCN(C(c3ccccc3)c3ccccc3)CC2)O1 (stereo not drawn) [Compound 15] |  |  |  | 38.5% | 60.0% | 45.5% | 60.3% |  | 16.5 mg/kg | 1.2 mg/kg | 3 mg/kg | 40 ± 4.19 mg/kg
